According to patent US10501413B2, “Inhibitors of the Notch transcriptional activation complex and methods for use of the same” (UNIVERSITY OF MIAMI, priority 2015, dated 2019):

Assays:
[1] = system: OE19 human esophageal adenocarcinoma xenograft; experiment: OE19 cell line xenograft; format: in vivo; conditions: nude mouse
From the text: The effect of the inhibitors of the disclosure on tumor formation in an animal was investigated using a xenograft model. When introduced into the flank of nude mouse 5×10^6 OE19 cells, a human esophageal adenocarcinoma cell line readily forms tumors over the course of 4 weeks. […] In contrast, treatment under the same regimen with a DMSO control had no effect on tumor growth. […] (FIG. 4) Six-week-old NOD-SCID gamma (“NSG”) mice were purchased from Jackson Laboratories and CD-1 Nude mice were purchased from Charles River Laboratories. For the cell line based xenografts assay, 5×10^6 OE19 cells in 200 μl serum-free culture medium were injected subcutaneously per mouse. The mice in the treatment group were injected with 15 mg/kg of Inhibitor No. 1-134-83 daily, and the mice in the control group were injected with the same volume of vehicle (DMSO). Subcutaneous tumor growth was measured once every 4 days using calipers along with body weight. The experiment was discontinued on day 28. PDX cancer models were established, as described in Zhang et al, Establishment of Patient-Derived Xenograft (PDX) Models of Human Breast Cancer, Current Protocols in Mouse Biology, 3:21-29 (2013), in NSG mice. […] Tumor growth was monitored every 4 days and tumor volume was measured by the formula: Volume=(S×S×L)/2, where S and L are the short and long dimensions. […]

[2] = system: cancer cell lines (OE33, 786-0 and panel); experiment: Colony formation assay; format: cell-based, human; conditions: for colony formation: 7 days
Description: The effect of inhibitor treatment on Notch-target gene transcription also was investigated (FIGS. 2C and 2D). […] As proof of specificity, transcription of the housekeeping gene, HPRT, was unaltered in treated cells. To test the effects of Notch inhibition on proliferation, a colony formation assay was performed.
To extend the analysis of tumor cell growth inhibition, several commonly used cancer cell lines were selected to test for sensitivity to Inhibitor No. 1-134-83 (FIGS. 3A and 3B). […] In this analysis, sensitivity to DAPT is taken to indicate specific inhibition of Notch activity. […] Cells that are refractory to DAPT were equally resistant to Inhibitor No. 1-134-83.
Cells were plated into a 6 well plate at a density of 2000 cells/cm^2. Inhibitor treatment commenced 24 hours post seeding, and the media containing inhibitor was changed every 48 hours thereafter. After 168 hours, cells were fixed with ice cold methanol for 10 minutes, stained for 1 hour with crystal violet, de-stained with water, and allowed to dry.

[3] = system: Notch-dependent somite formation; experiment: Zebrafish somite formation; format: in vivo, D. rerio; conditions: embryos soaked in 40 μM from 8 hPF, scored at 13 hPF
From the text: The in vivo effects of the inhibitors of the disclosure also were investigated using D. rerio. Notch signaling plays a role in somite formation in developing vertebrate embryos. Changes in levels of Notch signaling (either increased or decreased) during development of the zebrafish embryo result in disruption of the symmetric, bilaterally formed somites, which can be readily observed. Thus, disruption of somitogenesis in zebrafish represents a convenient dose-sensitive readout for Notch pathway stimulation or inhibition. When 100 pg of mNotch1 was injected in mRNA, defects in somitogenesis in 90% of the embryos resulted (compared to 0% disrupted embryos in the control group) (FIG. 5). […] Disruption of somite formation was not observed, however, when embryos were soaked in vehicle control (DMSO). […] On three separate days, multiple clutches of embryos from two or more breeding pairs of the AB wild type line were combined and incubated at 28.5° C. for 8 hours in E3 medium with 0.1% (w/v) methylene blue. The embryos were then placed into fresh E3 medium with 0.1% (w/v) methylene blue containing 50 μM DMSO, 40 μM compound 1-134-83, or nothing. […] At 13 hours post fertilization, samples were collected and scored for the presence of discrete somite boarders on a Zeiss Stemi 2000-CS scope. Data was analyzed using Fisher's exact test in R3.1.0. […]

[4] = system: NICD in OE33 and 786-0 cells; experiment: Western analysis of NICD levels; format: cell-based, human; conditions: OE33 and 786-0 cell lysates
Description: The effect of inhibitor treatment on the assembly of the NTC in cells was investigated.
Protein analysis was carried out using conventional SDS-PAGE and transfer techniques. Blots were probed with the indicated antibody (“Ab”), using standard conditions, and detected using enhanced chemiluminescence (“ECL”). The following Ab were used: anti-Notch1 (ab52627, abcam), anti-Notch1^val1744 (4147S, Cell Signaling Technology) and anti-GAPDH (ab9483, Abcam).

## CCOC(=O)COc1ccc(/C=C2\SC(=S)NC2=O)cc1OC [1-134-83]
[1]; 15 mg/kg every day
  adverse effects on the animal (e.g. change in body weight): no adverse effects
[1]; 15 mg/kg every day from second day after transplantation
  tumor establishment: tumor establishment was blocked
[2]; 786-0 and OE33 cells
  colony formation: dose-dependent reduction
[2]; cancer cell lines
  effective concentration: 5 µM
[2]; cells refractory to DAPT, dose nearly 10× the effective concentration
  cellular toxicity: did not induce any cellular toxicity
[2]; insensitive cell lines, high doses
  colony formation: do not show changes in colony formation ability
[2]; sensitive (Notch dependent) cell lines
  colony formation: dose-dependent decrease in colony formation
[3]
  somite formation in embryos: disrupted somites
[4]
  levels of NICD in cells: does not change
